Test results reported in article PMC8248052 (Chembiochem, 2021).

Target: T1, SMYD3 (Homo sapiens, UniProt Q9H7B4)
T1 sequence (Q9H7B4 1-428): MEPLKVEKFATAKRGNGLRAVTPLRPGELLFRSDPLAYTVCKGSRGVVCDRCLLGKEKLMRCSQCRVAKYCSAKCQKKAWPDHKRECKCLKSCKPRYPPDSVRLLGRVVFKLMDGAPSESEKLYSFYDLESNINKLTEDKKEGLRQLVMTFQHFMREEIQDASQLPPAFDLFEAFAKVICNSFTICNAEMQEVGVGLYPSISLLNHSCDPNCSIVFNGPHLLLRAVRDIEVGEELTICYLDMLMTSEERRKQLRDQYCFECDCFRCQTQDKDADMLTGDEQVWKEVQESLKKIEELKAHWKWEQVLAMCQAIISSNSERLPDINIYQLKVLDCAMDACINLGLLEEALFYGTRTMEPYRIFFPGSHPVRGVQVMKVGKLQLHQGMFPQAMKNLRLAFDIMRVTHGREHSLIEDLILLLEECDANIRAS
Test: LC-MS methyltransferase assay, MAP3K2 […]-274 peptide, inhibition at […]
Type: biochemical
Details: 0.63 µM

- Inhibition [%]: 52.8±1.7
Compound: O=C1Cc2cc(C(=O)NC3C[C@H]4CC[C@@H](C3)N4S(=O)(=O)CC3CCN(CCCC(F)(F)F)CC3)c(Cl)cc2N1 (stereo partly shown) [EPZ031686]
